Measurements published in ChEMBL document CHEMBL1201862, “PubChem BioAssay data set” (2004).
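Results reflect a 48-hour exposure of cells in 96-well plates to compound at five concentrations. Abbreviation: GI50, concentration required for 50% inhibition of growth.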 Activity calls are given as the source filed them. Rule as the data show it: active = GI50 up to about 1.1 µM and inactive = higher.

Assays:
Experiment in all cases: NCI tumour cell line growth inhibition, 48 h
[1] = system: A549
[2] = system: NCI/ADR-RES
[3] = system: U-251
[4] = system: SNB-19
[5] = system: HOP-92
[6] = system: 786-0
[7] = system: OVCAR-3
[8] = system: KM12
[9] = system: RXF 393
[10] = system: SNB-75
[11] = system: HL-60
[12] = system: SF-539
[13] = system: UO-31
[14] = system: Malme-3M
[15] = system: M14
[16] = system: NCI-H522
[17] = system: SF-295
[18] = system: OVCAR-4
[19] = system: LOX IMVI

| Compound | GI50 [1] | GI50 [2] | GI50 [3] | GI50 [4] | GI50 [5] | GI50 [6] | GI50 [7] | GI50 [8] | GI50 [9] | GI50 [10] | GI50 [11] | GI50 [12] | GI50 [13] | GI50 [14] | GI50 [15] | GI50 [16] | GI50 [17] | GI50 [18] | GI50 [19] |
| --- | --- | --- | --- | --- | --- | --- | --- | --- | --- | --- | --- | --- | --- | --- | --- | --- | --- | --- | --- |
| O=C(CSCC(=O)N/N=C/c1cccc(O)c1)N/N=C/c1cccc(O)c1 | > 100 µM (inactive) | > 100 µM (inactive) | > 100 µM (inactive) | > 100 µM (inactive) | > 100 µM (inactive) | > 100 µM (inactive) | > 100 µM (inactive) | > 100 µM (inactive) | > 100 µM (inactive) | > 100 µM (inactive) | > 100 µM (inactive) | > 100 µM (inactive) | > 100 µM (inactive) | > 100 µM (inactive) | > 100 µM (inactive) | > 100 µM (inactive) | > 100 µM (inactive) | > 100 µM (inactive) |  |
| O=c1[nH]c(Nc2nc3ccccc3[nH]2)nc(O)c1-c1ccccc1 | > 100 µM (inactive) | > 100 µM (inactive) | 82.2 µM (inactive) | > 100 µM (inactive) | > 100 µM (inactive) | > 100 µM (inactive) | > 100 µM (inactive) |  | > 100 µM (inactive) | > 100 µM (inactive) |  | > 100 µM (inactive) | > 100 µM (inactive) | > 100 µM (inactive) | > 100 µM (inactive) | > 100 µM (inactive) | > 100 µM (inactive) | > 100 µM (inactive) | > 100 µM (inactive) |
| O=c1oc2cccnc2n1CCCCN1CCN(c2ccccc2)CC1 | > 100 µM (inactive) | > 100 µM (inactive) | > 100 µM (inactive) | > 100 µM (inactive) | > 100 µM (inactive) | > 100 µM (inactive) | > 100 µM (inactive) |  | > 100 µM (inactive) |  | > 100 µM (inactive) | > 100 µM (inactive) | > 100 µM (inactive) | 89.1 µM (inactive) | > 100 µM (inactive) | > 100 µM (inactive) | > 100 µM (inactive) | > 100 µM (inactive) | > 100 µM (inactive) |
| CNC(=O)c1cc2nc3ccccc3c(=O)n2c2ccccc12 | > 10 µM (inactive) | > 10 µM (inactive) | > 10 µM (inactive) | > 10 µM (inactive) | > 10 µM (inactive) | > 10 µM (inactive) | > 10 µM (inactive) | > 10 µM (inactive) | > 10 µM (inactive) |  | > 10 µM (inactive) | > 10 µM (inactive) | > 10 µM (inactive) | > 10 µM (inactive) | > 10 µM (inactive) | > 10 µM (inactive) | > 10 µM (inactive) | > 10 µM (inactive) | > 10 µM (inactive) |
| CCOC(=O)c1cn2c(n1)sc1cc(OC)ccc12 | 7.38 µM (inactive) | 19.5 µM (inactive) | 2.81 µM (inactive) | 9.82 µM (inactive) | > 100 µM (inactive) | 6.21 µM (inactive) | 3.85 µM (inactive) | 3.34 µM (inactive) | 13.8 µM (inactive) | 33.2 µM (inactive) |  | 2.95 µM (inactive) | 10.9 µM (inactive) | 27.6 µM (inactive) | 5.28 µM (inactive) | 18 µM (inactive) | 7.18 µM (inactive) | > 100 µM (inactive) | 18.2 µM (inactive) |
| COc1cc(/C=C2\C[C@H]3[C@@H]4CC=C5C[C@@H](N6CCCC6)CC[C@]5(C)[C@H]4CC[C@]3(C)[C@H]2OC(C)=O)cc(OC)c1OC | 15.3 µM (inactive) | 16.3 µM (inactive) | 15.8 µM (inactive) | 18.4 µM (inactive) | 10.3 µM (inactive) | 11.3 µM (inactive) | 15.5 µM (inactive) | 15.1 µM (inactive) | 11.5 µM (inactive) | 15.4 µM (inactive) | 21.9 µM (inactive) |  | 15 µM (inactive) | 21.5 µM (inactive) | 15.8 µM (inactive) | 16.7 µM (inactive) | 12.8 µM (inactive) | 18.2 µM (inactive) |  |
| CC(=O)c1cc2c(s1)C(=O)c1ccccc1C2=O | 3.52 µM (inactive) | 1.89 µM (inactive) | 2.37 µM (inactive) | 0.424 µM (active) | 4.18 µM (inactive) | 5.93 µM (inactive) | 0.513 µM (active) | 2.04 µM (inactive) | 8.18 µM (inactive) | 2.4 µM (inactive) | 2.13 µM (inactive) | 1.44 µM (inactive) | 1.79 µM (inactive) | 1.28 µM (inactive) | 0.557 µM (active) | 0.944 µM (active) | 2.79 µM (inactive) | 3.52 µM (inactive) | 0.346 µM (active) |
| Cc1ccc(Nc2nc(O)c3[nH]cnc3n2)cc1CO | 3 µM (inactive) | 15.4 µM (inactive) |  | 12.2 µM (inactive) | 8.79 µM (inactive) | 15.7 µM (inactive) | 15.7 µM (inactive) | 8.81 µM (inactive) | 16.3 µM (inactive) | 14.7 µM (inactive) | 1.7 µM (inactive) |  | 16 µM (inactive) | 16.5 µM (inactive) | 12.8 µM (inactive) | 11.6 µM (inactive) | 15.9 µM (inactive) | 17.1 µM (inactive) | 19.9 µM (inactive) |
